Measured values taken from patent US9938543B2, “Methods, reagents and cells for biosynthesizing glutarate methyl ester” (priority 2014, dated 2018).

Experiments:
Assay type in all cases: biochemical
[1] = target: T1, pimeloyl-[acp] methyl ester methylesterase of SEQ ID NO: 1 (Escherichia coli, UniProt P13001); test: Pimeloyl-[acp] methyl ester methylesterase enzyme activity assay, glutaryl-CoA methyl ester to glutaryl-CoA (LC-MS); conditions: 5 mM glutaryl-CoA methyl ester, 10 μM enzyme, 25 mM Tris.HCl pH 7.0, 30° C., 1 h
T1 construct: His-tag (C); made in house; host or cells: E. coli BL21[DE3], pET28b+ vector
T1 sequence (P13001 whole entry): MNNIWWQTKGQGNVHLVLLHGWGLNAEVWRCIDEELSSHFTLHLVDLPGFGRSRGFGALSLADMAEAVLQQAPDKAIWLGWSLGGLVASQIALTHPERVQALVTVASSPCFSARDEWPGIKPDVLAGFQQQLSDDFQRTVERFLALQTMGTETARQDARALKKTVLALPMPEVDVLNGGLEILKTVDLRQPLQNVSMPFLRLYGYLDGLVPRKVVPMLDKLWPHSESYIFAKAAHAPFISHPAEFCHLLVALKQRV
Protocol: A sequence encoding an C-terminal His-tag was added to the gene from Escherichia coli encoding the pimeloyl-[acp] methyl ester methylesterase of SEQ ID NO: 1 (see FIG. 8) such that C-terminal HIS tagged pimeloyl-[acp] methyl ester methylesterase could be produced. The resulting modified gene was cloned into a pET28b+ expression vector under control of the T7 promoter and the expression vector was transformed into a BL21[DE3] E. coli host. The resulting recombinant E. coli strain was cultivated at 37° C. in a 500 mL shake flask culture containing 100 mL LB media and antibiotic selection pressure, with shaking at 230 rpm. Each culture was induced overnight at 18° C. using 0.3 mM IPTG.
The pellet from each induced shake flask culture was harvested via centrifugation. Each pellet was resuspended and lysed via sonication. The cell debris was separated from the supernatant via centrifugation. The pimeloyl-[acp] methyl ester methylesterase was purified from the supernatant using Ni-affinity chromatography, buffer exchanged and concentrated into 20 mM HEPES buffer (pH=7.5) via ultrafiltration and stored at 4° C.
Enzyme activity assays converting glutaryl-CoA methyl ester to glutaryl-CoA were performed in triplicate in a buffer composed of a final concentration of 25 mM Tris.HCl buffer (pH=7.0) and 5 [mM] glutaryl-CoA methyl ester. […] The formation of glutaryl-CoA was quantified via LC-MS.

[2] = system: carboxylate reductase of SEQ ID NO: 7 (Segniliparus rotundus); test: Carboxylate reductase enzyme activity assay, glutarate methyl ester as substrate (NADPH consumption at 340 nm); conditions: 2 mM glutarate methyl ester, 1 mM NADPH, 1 mM ATP, pH 7.5, room temperature 20 min; enhanced by gene product of sfp; against empty vector control
Protocol: (§1) A nucleotide sequence encoding a His-tag was added to the genes from Mycobacterium marinum, Mycobacterium smegmatis, Segniliparus rugosus, Mycobacterium massiliense, and Segniliparus rotundus that encode the carboxylate reductases of SEQ ID NOs: 2-4, 6 and 7, respectively (GenBank Accession Nos. ACC40567.1, ABK71854.1, EFV11917.1, EIV11143.1, and ADG98140.1, respectively) (see FIG. 8) such that N-terminal HIS tagged carboxylate reductases could be produced. Each of the modified genes was cloned into a pET Duet expression vector alongside a sfp gene encoding a His-tagged phosphopantetheine transferase from Bacillus subtilis, both under control of the T7 promoter. Each expression vector was transformed into a BL21[DE3] E. coli host along with the expression vectors from Example 2. Each resulting recombinant E. coli strain was cultivated at 37° C. in a 250 mL shake flask culture containing 50 mL LB media and antibiotic selection pressure, with shaking at 230 rpm. Each culture was induced overnight at 37° C. using an auto-induction media.
(§2) The pellet from each induced shake flask culture was harvested via centrifugation. Each pellet was resuspended and lysed via sonication. The cell debris was separated from the supernatant via centrifugation. The carboxylate reductases and phosphopantetheine transferase were purified from the supernatant using Ni-affinity chromatography, diluted 10-fold into 50 mM HEPES buffer (pH=7.5) and concentrated via ultrafiltration.
(§3) The enzyme activity assay was performed in triplicate in a buffer composed of a final concentration of 50 mM HEPES buffer (pH=7.5), 2 mM glutarate methyl ester, 10 mM MgCl2, 1 mM ATP and 1 mM NADPH. The enzyme activity assay reaction was initiated by adding purified carboxylate reductase and phosphopantetheine transferase or the empty vector control to the assay buffer containing the glutarate methyl ester and then incubated at room temperature for 20 min. The consumption of NADPH was monitored by absorbance at 340 nm.

[3] = target: T2, carboxylate reductase of SEQ ID NO: 2 (Mycobacterium marinum) (Mycobacterium marinum, UniProt B2HN69); test: as above; conditions: 2 mM glutarate methyl ester, 1 mM NADPH, 1 mM ATP, pH 7.5, room temperature 20 min; enhanced by gene product of sfp; against empty vector control
T2 construct: His-tag (N); made in house; host or cells: E. coli BL21[DE3], pET Duet vector
T2 sequence (B2HN69 whole entry): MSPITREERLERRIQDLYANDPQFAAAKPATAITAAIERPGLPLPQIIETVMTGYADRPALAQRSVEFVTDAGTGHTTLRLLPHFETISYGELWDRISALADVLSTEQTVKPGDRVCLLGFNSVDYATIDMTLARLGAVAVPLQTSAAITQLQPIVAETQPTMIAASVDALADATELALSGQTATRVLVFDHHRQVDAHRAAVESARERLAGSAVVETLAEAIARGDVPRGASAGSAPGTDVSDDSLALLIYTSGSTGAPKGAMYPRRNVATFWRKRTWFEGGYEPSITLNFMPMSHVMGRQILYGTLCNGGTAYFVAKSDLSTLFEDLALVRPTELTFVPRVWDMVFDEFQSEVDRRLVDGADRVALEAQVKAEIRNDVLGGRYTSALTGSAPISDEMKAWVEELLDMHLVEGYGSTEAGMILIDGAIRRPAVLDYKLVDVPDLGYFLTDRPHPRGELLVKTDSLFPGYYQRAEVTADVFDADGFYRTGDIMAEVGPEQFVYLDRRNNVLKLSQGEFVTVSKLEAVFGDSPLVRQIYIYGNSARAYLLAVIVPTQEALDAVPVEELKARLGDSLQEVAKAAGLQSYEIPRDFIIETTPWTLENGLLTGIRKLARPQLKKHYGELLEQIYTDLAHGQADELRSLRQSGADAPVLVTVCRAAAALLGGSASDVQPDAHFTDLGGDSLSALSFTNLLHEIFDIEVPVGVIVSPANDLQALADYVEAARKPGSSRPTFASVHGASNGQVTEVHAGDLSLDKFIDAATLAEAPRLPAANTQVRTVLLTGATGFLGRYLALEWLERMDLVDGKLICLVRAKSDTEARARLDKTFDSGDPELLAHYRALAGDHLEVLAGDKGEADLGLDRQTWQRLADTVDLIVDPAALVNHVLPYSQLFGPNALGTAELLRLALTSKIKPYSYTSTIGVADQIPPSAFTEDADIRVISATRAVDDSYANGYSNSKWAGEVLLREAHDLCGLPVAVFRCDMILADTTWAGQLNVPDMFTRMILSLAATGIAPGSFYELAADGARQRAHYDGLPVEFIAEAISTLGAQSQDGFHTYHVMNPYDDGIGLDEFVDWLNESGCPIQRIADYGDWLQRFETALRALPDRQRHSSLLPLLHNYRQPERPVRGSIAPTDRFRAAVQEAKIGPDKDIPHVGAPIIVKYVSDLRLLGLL
Protocol: as §1, §2, §3

[4] = system: carboxylate reductase of SEQ ID NO: 6 (Mycobacterium massiliense); test: as above; conditions: 2 mM glutarate methyl ester, 1 mM NADPH, 1 mM ATP, pH 7.5, room temperature 20 min; enhanced by gene product of sfp; against empty vector control
Protocol: as §1, §2, §3

[5] = system: carboxylate reductase of SEQ ID NO: 3 (Mycobacterium smegmatis); test: as above; conditions: 2 mM glutarate methyl ester, 1 mM NADPH, 1 mM ATP, pH 7.5, room temperature 20 min; enhanced by gene product of sfp; against empty vector control
Protocol: as §1, §2, §3

| SMILES | acceptance as substrate, forming glutaryl-CoA [1] | acceptance as substrate, forming glutarate semialdehyde methyl ester [2] | acceptance as substrate, forming glutarate semialdehyde methyl ester [3] | acceptance as substrate, forming glutarate semialdehyde methyl ester [4] | acceptance as substrate, forming glutarate semialdehyde methyl ester [5] |
| --- | --- | --- | --- | --- | --- |
| COC(=O)CCCC(=O)SCCNC(=O)CCNC(=O)C(O)C(C)(C)COP(=O)(O)OP(=O)(O)OCC1OC(n2cnc3c(N)ncnc32)C(O)C1OP(=O)(O)O (centres unmarked) [glutaryl-CoA methyl ester] | accepted glutaryl-CoA methyl ester as substrate | – | – | – | – |
| COC(=O)CCCC(=O)O [glutarate methyl ester] | – | accepted glutarate methyl ester as substrate | accepted glutarate methyl ester as substrate | accepted glutarate methyl ester as substrate | accepted glutarate methyl ester as substrate |
